Laboratory results: ChEMBL document CHEMBL1177837, “5-Isopropylidene-3-ethyl rhodanine induce growth inhibition followed by apoptosis in leukemia cells” (Eur J Med Chem, 2010)
Activity calls are given as the source filed them.

Assays:
Format in all cases: functional, cell-based
CCRF-CEM [1] = test: Cytotoxicity against human CEM cells at 50 uM after 48 hrs by trypan blue exclusion assay
CCRF-CEM [2] = test: Cytotoxicity against human CEM cells at 100 uM after 48 hrs by trypan blue exclusion assay
CCRF-CEM [3] = test: Cytotoxicity against human CEM cells at 250 uM after 48 hrs by trypan blue exclusion assay
CCRF-CEM [4] = test: Cytotoxicity against human CEM cells assessed as LDH release after at 10 to 250 uM; conditions: TDE = time-dependent effect
CCRF-CEM [5] = test: Cell cycle arrest in human CEM cells assessed as accumulation at G1 phase after 72 hrs by FACS
CCRF-CEM [6] = test: Cell cycle arrest in human CEM cells assessed as accumulation at G2 phase after 72 hrs by FACS
CCRF-CEM [7] = test: Cell cycle arrest in human CEM cells assessed as accumulation at S phase after 72 hrs by FACS
CCRF-CEM [8] = test: Cell cycle arrest in human CEM cells assessed as accumulation at G2/M phase after 72 hrs by FACS
CCRF-CEM [9] = test: Cell cycle arrest in human CEM cells assessed as accumulation at sub G1 phase after 72 hrs by FACS

Measured: Activity

CCN1C(=O)C(=C(C)C)SC1=S
active: CCRF-CEM [1] | CCRF-CEM [2] | CCRF-CEM [3] | CCRF-CEM [4] tde | CCRF-CEM [5] Dose-dependent effect | CCRF-CEM [6] Dose-dependent effect | CCRF-CEM [7] Dose-dependent effect | CCRF-CEM [8] Dose-dependent effect | CCRF-CEM [9] Dose-dependent effect
